Results from US9764046B2, “Labeling composition for intraocular tissue, labeling method of intraocular tissue, and screening method” (CANON KABUSHIKI KAISHA, priority 2008, dated 2017).

Columns and labels:
[1] = tested on: fundus (retina) of Zebrafish fry; experiment: In vivo intraocular observation of the fundus of living Zebrafish fry by confocal microscope; settings: 1 μg/mL, 1 hour exposure;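 also: +++ photoreceptor and inner retinal layers stained ++ mainly photoreceptor layer − none seen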
Experimental: In an arbitrary well of a 24-well multiplate, were put 1 mL of Staining Liquid 2 and a fry of Zebrafish, and the plate was left to stand for 1 hour. A process of removing Staining Liquid 2 in the well and replacing it by 1 mL of distilled water was then performed 3 times.
The fry was then put in a 0.7% agarose solution and placed on a slide glass to observe the fundus of the fry through a confocal microscope.

[2] = Excitation and fluorescence wavelengths by fluorescence spectrometer FL4500; assay type: physicochemical; settings: in nm (unit assumed)
[3] = tested on: intraocular tissue (retinal tissue incl. photoreceptor cell layer, vitreous body) of Zebrafish 7-day-old embryo; experiment: Staining of intraocular tissue of Zebrafish fry by exposure to staining liquid, ocular tissue section observed by confocal microscope; assay type: in vivo; settings: Zebrafish 7 dpf fry, 1 μg/mL, 1 hour exposure, fixed ocular section
[4] = aqueous solution: 10 mg/mL DMSO solution diluted to 1/500 with purified water (Examples 1 to 94)
[5] = Comparative Examples, solvent not stated
[6] = values in a chloroform solution (Examples 95 to 106)

SMILES: CCN(CC)c1ccc2cc(-c3nc4ccccc4[nH]3)c(=O)oc2c1 [Compound 9]
- Result of observation (staining ability, in vivo fundus) [1]: ++
- λem (fluorescence wavelength) [2, 4]: 514
- λex (excitation wavelength) [2, 4]: 464
- Staining ability [3]: ++

SMILES: CCN(CC)c1ccc2cc3c(oc2c1)c(C#N)c(=O)n1c2ccccc2nc31 [Compound 6]
- Result of observation (staining ability, in vivo fundus) [1]: ++
- λem (fluorescence wavelength) [2, 4]: 576
- λex (excitation wavelength) [2, 4]: 555
- Staining ability [3]: ++

SMILES: O=C1OC2(c3ccc(O)cc3Oc3cc(O)ccc32)c2ccccc21 [Fluorescein, fluorescein, reference compound]
- Result of observation (staining ability, in vivo fundus) [1]: −
- Staining ability [3]: −

SMILES: CC1(C)CCN2CCC(C)(C)c3c2c1cc1cc(-c2nc4ccccc4s2)c(=O)oc31 [Compound 8]
- Result of observation (staining ability, in vivo fundus) [1]: +++
- λem (fluorescence wavelength) [2, 4]: 592
- λex (excitation wavelength) [2, 4]: 477
- Staining ability [3]: ++

SMILES: CCCN(CCC)c1ccc2cc(-c3nc4ccccc4[nH]3)c(=O)oc2c1 [Compound 12]
- Result of observation (staining ability, in vivo fundus) [1]: ++
- λem (fluorescence wavelength) [2, 4]: 509
- λex (excitation wavelength) [2, 4]: 463
- Staining ability [3]: ++

SMILES: CCN(CC)c1ccc2cc(-c3nc4ccccc4s3)c(=O)oc2c1 [Compound 7]
- Result of observation (staining ability, in vivo fundus) [1]: +++
- λem (fluorescence wavelength) [2, 4]: 555
- λex (excitation wavelength) [2, 4]: 469
- Staining ability [3]: ++

SMILES: O=C(O)CCN1C(=O)/C(=C\c2ccc3c(c2)C2CCCC2N3c2ccccc2)SC1=S (stereo not drawn) [Compound 48]
- Result of observation (staining ability, in vivo fundus) [1]: ++
- λem (fluorescence wavelength) [2, 4]: 619
- λex (excitation wavelength) [2, 4]: 541
- Staining ability [3]: ++

SMILES: COc1ccc2cc(N3c4ccc(/C=C5\C(=O)N(c6ccc(C(=O)O)cc6)N=C5C)cc4C4CCCC43)ccc2c1 (stereo not drawn) [Compound 49]
- λem (fluorescence wavelength) [2, 4]: 649
- λex (excitation wavelength) [2, 4]: 569
- Staining ability [3]: ++

SMILES: CSc1ccc(N2c3ccc(/C=C4/SC(=S)N(CC(=O)O)C4=O)cc3C3CCCC32)cc1 (stereo not drawn) [Compound 66]
- Result of observation (staining ability, in vivo fundus) [1]: ++
- λem (fluorescence wavelength) [2, 4]: 636
- λex (excitation wavelength) [2, 4]: 527
- Staining ability [3]: +++

SMILES: CCN1C(=O)/C(=c2\s/c(=C/c3ccc4c(c3)C3CCCC3N4CC)c(=O)n2CC)SC1=S (stereo not drawn) [Compound 86]
- λem (fluorescence wavelength) [2, 4]: 671
- λex (excitation wavelength) [2, 4]: 623
- Staining ability [3]: ++

SMILES: CCN1/C(=C\C=C\C2=[N+](CC)c3ccccc3C23CCCCC3)C2(CCCCC2)c2ccccc21.[I-] [Compound 15]
- λem (fluorescence wavelength) [2, 4]: 569
- λex (excitation wavelength) [2, 4]: 496
- Staining ability [3]: +++

SMILES: COc1ccc(N2c3ccc(/C=C/c4sc5c6ccccc6ccc5[n+]4CCC(=O)O)cc3C3CCCC32)cc1.[I-] (stereo not drawn) [Compound 83]
- λem (fluorescence wavelength) [2, 4]: 682
- λex (excitation wavelength) [2, 4]: 605
- Stained site [3]: 2
- Staining ability [3]: ++

SMILES: C[n+]1c(C=c2sc(=Cc3ccc4c(c3)C3CCCC3N4c3ccc(C=C(c4ccccc4)c4ccccc4)cc3)c(=O)n2CC(=O)O)sc2ccccc21.[Br-] (stereo not drawn) [Compound 101]
- λem (fluorescence wavelength) [2, 4]: 760
- λex (excitation wavelength) [2, 4]: 560
- Stained site [3]: 1
- Staining ability [3]: ∘

SMILES: CC1(C)C(/C=C/C=C/C=C/C=C2\N(CCCCS(=O)(=O)O)c3ccc4ccccc4c3C2(C)C)=[N+](CCCCS(=O)(=O)[O-])c2ccc3ccccc3c21 [ICG, indocyanine green, reference compound]
- Result of observation (staining ability, in vivo fundus) [1]: −
- λem (fluorescence wavelength) [2, 5]: 811
- λex (excitation wavelength) [2, 5]: 784
- Staining ability [3]: −

SMILES: CCCCCCCCN1C(=O)S/C(=c2/s/c(=C/c3ccc4c(c3)C3CCCC3N4c3ccc(C=C(c4ccccc4)c4ccccc4)cc3)c(=O)n2CC(=O)OCC)C1=O (stereo not drawn) [Compound 57]
- λem (fluorescence wavelength) [2, 4]: 671
- λex (excitation wavelength) [2, 4]: 590
- Staining ability [3]: ++

SMILES: COc1ccc(N2c3ccc(/C=C/C4=[N+](CCC(=O)O)c5ccccc5C4(C)C)cc3C3CCCC32)cc1.[I-] (stereo not drawn) [Compound 71]
- λem (fluorescence wavelength) [2, 4]: 671
- λex (excitation wavelength) [2, 4]: 592
- Staining ability [3]: ++

SMILES: COc1ccc2cc(N3c4ccc(/C=C5\SC(=S)N(CC(=O)O)C5=O)cc4[C@@H]4CCC[C@@H]43)ccc2c1 [Compound 36]
- Result of observation (staining ability, in vivo fundus) [1]: ++
- λem (fluorescence wavelength) [2, 4]: 661
- λex (excitation wavelength) [2, 4]: 566
- Staining ability [3]: +++

SMILES: CCN(CC)c1ccc2cc(-c3nc4cc(Cl)ccc4o3)c(=O)oc2c1 [Compound 11]
- Result of observation (staining ability, in vivo fundus) [1]: +++
- λem (fluorescence wavelength) [2, 4]: 476
- λex (excitation wavelength) [2, 4]: 422
- Staining ability [3]: +++

SMILES: CCN1S/C(=c2\s/c(=C/c3ccc4c(c3)[C@@H]3CCC[C@@H]3N4Cc3ccccc3)c(=O)n2CC(=O)O)SC1=S [Compound 39]
- λem (fluorescence wavelength) [2, 4]: 657
- λex (excitation wavelength) [2, 4]: 576
- Staining ability [3]: ++

SMILES: O=C1/C(=C/c2ccc3c(c2)C2CCCC2N3c2ccccc2)Oc2ccc(I)cc21 (stereo not drawn) [Compound 107]
- λem (fluorescence wavelength) [2, 4]: 490
- λex (excitation wavelength) [2, 4]: 380
- Staining ability [3]: ∘

SMILES: CCCCN1C(=O)/C(=c2\s/c(=C/c3ccc4c(c3)C3CCCC3N4c3ccc(OC)cc3)c(=O)n2CC(=O)OCC)SC1=S (stereo not drawn) [Compound 68]
- λem (fluorescence wavelength) [2, 4]: 527
- λex (excitation wavelength) [2, 4]: 450
- Staining ability [3]: ++

SMILES: CCN(CC)c1ccc2cc(-c3nc4ccc(C)cc4o3)c(=O)oc2c1 [Compound 13]
- Result of observation (staining ability, in vivo fundus) [1]: +++
- λem (fluorescence wavelength) [2, 4]: 504
- λex (excitation wavelength) [2, 4]: 472
- Staining ability [3]: +++

SMILES: O=C(O)C[n+]1c(/C=C/c2ccc3c(c2)C2CCCC2N3Cc2ccccc2)sc2ccccc21.[Br-] (stereo not drawn) [Compound 63]
- λem (fluorescence wavelength) [2, 4]: 611
- λex (excitation wavelength) [2, 4]: 566
- Stained site [3]: 1
- Staining ability [3]: ++

SMILES: O=C(O)CN1C(=O)/C(=C/c2ccc3c(c2)[C@@H]2CCC[C@@H]2N3c2ccc(C=C(c3ccccc3)c3ccccc3)cc2)SC1=S [Compound 35]
- λem (fluorescence wavelength) [2, 4]: 655
- λex (excitation wavelength) [2, 4]: 535
- Staining ability [3]: ++

SMILES: CC[n+]1c(C=C2SCC(=O)N2c2ccccc2)sc2ccccc21.[Br-] [Compound 85]
- λem (fluorescence wavelength) [2, 4]: 503
- λex (excitation wavelength) [2, 4]: 353
- Stained site [3]: 2
- Staining ability [3]: ++

SMILES: Nc1c(OCCCOc2ccccc2)cc(O)c2c1C(=O)c1ccccc1C2=O [Compound 112]
- λem (fluorescence wavelength) [2, 6]: 568
- λex (excitation wavelength) [2, 6]: 513
- Staining ability [3]: ∘

SMILES: Nc1c(OCCOC(=O)Oc2ccccc2)cc(O)c2c1C(=O)c1ccccc1C2=O [Compound 114]
- λem (fluorescence wavelength) [2, 6]: 568
- λex (excitation wavelength) [2, 6]: 513
- Staining ability [3]: ∘

SMILES: Cn1c(=O)cc2c3c(c(NC4CCCCC4)ccc31)C(=O)c1ccccc1-2 [Compound 1]
- λem (fluorescence wavelength) [2, 4]: 619
- λex (excitation wavelength) [2, 4]: 599
- Staining ability [3]: ++

SMILES: CCN1/C(=C/C=C/c2sc3ccccc3[n+]2CC)Sc2ccccc21.[I-] [Compound 27]
- λem (fluorescence wavelength) [2, 4]: 575
- λex (excitation wavelength) [2, 4]: 485
- Stained site [3]: 1
- Staining ability [3]: ++
